#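 Each compound was tested at five concentrations against cells in 96-well plates for 48 hours. GI50 marks 50% less growth. TGI is the concentration that stops growth completely.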
# Experiments:
# Test in all cases: growth of human tumour cells (NCI), 48 h
# [1] = tested on: NCI/ADR-RES ovarian
# [2] = tested on: SF-268 CNS
# [3] = tested on: 786-0 renal
# [4] = tested on: MDA-MB-435
# [5] = tested on: RXF 393 renal
# [6] = tested on: SK-OV-3 ovarian
# [7] = tested on: OVCAR-8 ovarian
# [8] = tested on: PC-3 prostate
# [9] = tested on: SK-MEL-28 melanoma
# [10] = tested on: U251 CNS
# [11] = tested on: NCI-H226 lung
# [12] = tested on: MDA-MB-231 breast
# [13] = tested on: SF-539 CNS
# [14] = tested on: HS 578T breast
# [15] = tested on: MOLT-4 leukemia
# [16] = tested on: SNB-19 CNS
# [17] = tested on: K-562 leukemia
# [18] = tested on: NCI-H23 lung
# [19] = tested on: NCI-H522 lung
# [20] = tested on: EKVX NSCLC
# [21] = tested on: OVCAR-3 ovarian
# [22] = tested on: SNB-75 CNS
# [23] = tested on: UO-31 renal
# [24] = tested on: COLO 205 colon
# [25] = tested on: BT-549 breast
# [26] = tested on: HOP-92 NSCLC
# [27] = tested on: SK-MEL-2 melanoma
# [28] = tested on: OVCAR-5 ovarian
# [29] = tested on: SF-295 CNS
# [30] = tested on: A549 NSCLC
# [31] = tested on: A498 renal
# [32] = tested on: T-47D breast
# [33] = tested on: HOP-62 NSCLC
# [34] = tested on: ACHN renal
# [35] = tested on: UACC-62 melanoma
# [36] = tested on: CCRF-CEM leukemia
# [37] = tested on: SK-MEL-5 melanoma
# [38] = tested on: IGROV1 ovarian
# [39] = tested on: SN12C renal
# [40] = tested on: TK-10 renal
# [41] = tested on: M14 melanoma
# [42] = tested on: LOX IMVI melanoma
# [43] = tested on: MCF7 breast
# [44] = tested on: KM12 colon
# [45] = tested on: RPMI-8226 leukemia
# [46] = tested on: HT29 colon
# [47] = tested on: DU-145 prostate
# [48] = tested on: NCI-H460 lung
# [49] = tested on: CAKI-1 renal
# [50] = tested on: HCT-116 colon
# [51] = tested on: SW-620 colon
# [52] = tested on: HCT-15 colon
# [53] = tested on: UACC-257 melanoma
# [54] = tested on: MALME-3M melanoma
# [55] = tested on: HCC-2998 colon
smiles,measurement,setting,value
O=C(O)[C@@H]1CCCN1Cc1cc2cc3c(cc2c2cc(OCc4ccccc4)ccc12)OCO3,GI50,[1],43.9 µM
same,TGI,[1],> 100 µM
same,GI50,[2],24.4 µM
same,TGI,[2],55.9 µM
same,GI50,[3],55 µM
same,TGI,[3],> 100 µM
same,GI50,[4],23.4 µM
same,TGI,[4],58.4 µM
same,GI50,[5],20.6 µM
same,TGI,[5],42.6 µM
same,GI50,[6],32.4 µM
same,TGI,[6],81.3 µM
same,GI50,[7],30.8 µM
same,TGI,[7],> 100 µM
same,GI50,[8],29.8 µM
same,TGI,[8],> 100 µM
same,GI50,[9],19.4 µM
same,TGI,[9],43.9 µM
same,GI50,[10],30.1 µM
same,TGI,[10],> 100 µM
same,GI50,[11],21.8 µM
same,TGI,[11],50.5 µM
same,GI50,[12],15 µM
same,TGI,[12],42.6 µM
same,GI50,[13],25.1 µM
same,TGI,[13],60.1 µM
same,GI50,[14],17.6 µM
same,TGI,[14],49.2 µM
same,GI50,[15],30.7 µM
same,TGI,[15],> 100 µM
same,GI50,[16],18.5 µM
same,TGI,[16],48.3 µM
same,GI50,[17],28.7 µM
same,TGI,[17],> 100 µM
same,GI50,[18],38.4 µM
same,TGI,[18],> 100 µM
same,GI50,[19],23.7 µM
same,TGI,[19],58.3 µM
same,GI50,[20],21.8 µM
same,TGI,[20],61.7 µM
same,GI50,[21],17.5 µM
same,TGI,[21],43.6 µM
same,GI50,[22],21.1 µM
same,TGI,[22],52.4 µM
same,GI50,[23],24.3 µM
same,TGI,[23],> 100 µM
same,GI50,[24],14.7 µM
same,TGI,[24],30.6 µM
same,GI50,[25],22.6 µM
same,TGI,[25],52.9 µM
same,GI50,[26],21.9 µM
same,TGI,[26],63.3 µM
same,GI50,[27],20.1 µM
same,TGI,[27],45.5 µM
same,GI50,[28],21.4 µM
same,TGI,[28],54.9 µM
same,GI50,[29],18.3 µM
same,TGI,[29],45 µM
same,GI50,[30],27.1 µM
same,TGI,[30],> 100 µM
same,GI50,[31],13.5 µM
same,TGI,[31],45.3 µM
same,GI50,[32],19.2 µM
same,TGI,[32],54 µM
same,GI50,[33],51.2 µM
same,TGI,[33],> 100 µM
same,GI50,[34],26.1 µM
same,TGI,[34],86.6 µM
same,GI50,[35],16.8 µM
same,TGI,[35],33.2 µM
same,GI50,[36],23.2 µM
same,TGI,[36],> 100 µM
same,GI50,[37],14.7 µM
same,TGI,[37],31.6 µM
same,GI50,[38],24.1 µM
same,TGI,[38],62.6 µM
same,GI50,[39],23.1 µM
same,TGI,[39],72.7 µM
same,GI50,[40],27.8 µM
same,TGI,[40],77.7 µM
same,GI50,[41],46.1 µM
same,TGI,[41],> 100 µM
same,GI50,[42],17.1 µM
same,TGI,[42],31.7 µM
same,GI50,[43],17.2 µM
same,TGI,[43],43.9 µM
same,GI50,[44],31.8 µM
same,TGI,[44],> 100 µM
same,GI50,[45],17 µM
same,TGI,[45],60.9 µM
same,GI50,[46],18 µM
same,TGI,[46],37.2 µM
same,GI50,[47],19.4 µM
same,TGI,[47],65.9 µM
same,GI50,[48],17.8 µM
same,TGI,[48],44.6 µM
same,GI50,[49],20.3 µM
same,TGI,[49],53.6 µM
same,GI50,[50],37.6 µM
same,TGI,[50],> 100 µM
same,GI50,[51],14.1 µM
same,TGI,[51],54.6 µM
same,GI50,[52],28.5 µM
same,TGI,[52],> 100 µM
same,GI50,[53],28.9 µM
same,TGI,[53],71.8 µM
same,GI50,[54],25.8 µM
same,TGI,[54],60.1 µM
same,GI50,[55],36.4 µM
same,TGI,[55],> 100 µM

# Source: PubChem BioAssay (NCI)
